# Assay results published in ChEMBL document CHEMBL3588822, “Synthetic 1,2,3-triazole-linked glycoconjugates bind with high affinity to human galectin-3” (Bioorg Med Chem, 2015).
# Tests used:
# [1] = target: T1, Galectin-3 (Homo sapiens, UniProt P17931); assay: Inhibition of human recombinant wild type galectin 3 after 60 mins by surface plasmon resonance immunosensor assay
# [2] = target: T1, Galectin-3; assay: Inhibition of human recombinant wild type galectin 3 first carbohydrate recognition domain after 60 mins by surface plasmon resonance immunosensor assay
# [3] = target: T1, Galectin-3; assay: Inhibition of human recombinant wild type galectin 3 second carbohydrate recognition domain after 60 mins by surface plasmon resonance immunosensor assay
# T1 sequence (P17931 whole entry, the tested form may be a part): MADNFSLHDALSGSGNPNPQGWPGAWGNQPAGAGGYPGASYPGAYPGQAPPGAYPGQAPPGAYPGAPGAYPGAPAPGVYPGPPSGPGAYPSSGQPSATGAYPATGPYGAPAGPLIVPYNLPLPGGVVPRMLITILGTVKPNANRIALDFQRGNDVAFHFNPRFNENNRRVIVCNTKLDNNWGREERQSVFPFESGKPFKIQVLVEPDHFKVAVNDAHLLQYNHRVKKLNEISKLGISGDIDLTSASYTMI
SMILES,Kd [1] [µM],Kd [2] [µM],Kd [3] [µM]
CO[C@H]1O[C@H](CO)[C@H](O)[C@H](OCc2cn([C@H](C(=O)O)[C@@H](C)O)nn2)[C@H]1O,88.2,–,–
CO[C@H]1O[C@H](CO)[C@H](O)[C@H](OCc2cn([C@@H](Cc3ccccc3)C(=O)O)nn2)[C@H]1O,7.96,–,–
CO[C@H]1O[C@H](CO)[C@H](O)[C@H](OCc2cn([C@@H](Cc3cc4ccccc4[nH]3)C(=O)O)nn2)[C@H]1O,28.1,–,–
CO[C@H]1O[C@H](CO)[C@H](O)[C@H](OCc2cn([C@@H](CCCCN)C(=O)O)nn2)[C@H]1O,4.56,–,–
CO[C@H]1O[C@H](CO)[C@H](O)[C@H](OCc2cn([C@@H](CC(=O)O)C(=O)O)nn2)[C@H]1O,11.1,–,–
CO[C@H]1O[C@H](CO)[C@H](O)[C@H](OCc2cn([C@@H](Cc3ccc(O)cc3)C(=O)O)nn2)[C@H]1O,19.9,–,–
OC[C@H]1O[C@@H](O[C@H]2[C@H](O)[C@@H](O)[C@H](OCCOCCOCCn3cc(CO[C@@H]4O[C@H](CO)[C@@H](O[C@@H]5O[C@H](CO)[C@H](O)[C@H](O)[C@H]5O)[C@H](O)[C@H]4O)nn3)O[C@@H]2CO)[C@H](O)[C@@H](O)[C@H]1O,–,0.5,19
